Earlier results on one compound are cited in patent US20220265733A1, “COMPOSITIONS COMPRISING BACTERIAL STRAINS” (4D Pharma Research Limited, priority 2019, published 2022).

The test system of one data set is class I HDAC. As to conditions: reference [70].
A further data set relates to DSS-colitis murine model. The note with it: reference [70].

Regarding `CCCC(CCC)C(=O)O` [valproic acid], in the data set on class I HDAC, the HDAC inhibition entry is on record as “associated with class I HDAC inhibition”. The colitis entry in the data set with DSS-colitis murine model was “amelioration”.
